The values below come from ChEMBL document CHEMBL3044701, “Synthesis, characterization and biological activity of Schiff bases derived from metronidazole” (Med Chem Res, 2012).

pIC50: −log10 of the molar value. Values after ≈ are worked out from the molar mass of the structure shown. Active and inactive are the calls of the source. The rule behind the calls is not given here.

Assay [1] deals with Escherichia coli. Description: Antibacterial activity against Escherichia coli ATCC 8739 after 24 hr by broth microdilution method. The class given is functional. Conditions: ATCC 8739, 24 h. (Broth dilution looks for growth in wells or tubes with falling amounts of substance.)
For assay [2], the system named is Staphylococcus aureus. The assay can be described thus: Antibacterial activity against Staphylococcus aureus ATCC 6538P after 24 hr by broth microdilution method. The assay is classed as functional.
Assay [3] deals with Giardia intestinalis. The assay can be described thus: Antigiardial activity against Giardia intestinalis WB by trypan blue assay. The assay is classed as functional, organism-based. Conditions: Giardia duodenalis.
In assay [4] the test system is Candida albicans. The assay can be described thus: Antifungal activity against Candida albicans ATCC 10231 after 24 hr by broth microdilution method. The assay is classed as functional. The settings on record: ATCC 10231, 24 h.
Assay [5] relates to Clostridium sporogenes. Description: Antibacterial activity against Clostridium sporogenes ATCC 19404 after 24 hr by broth microdilution method. The class given is functional. The settings on record: ATCC 19404, 24 h.
The subject of assay [6] is Giardia intestinalis. Description: Ratio of metronidazole IC50 to compound IC50 for Giardia intestinalis. The assay is classed as functional, Giardia duodenalis.
Assay [7] has as its system Candida albicans. The assay can be described thus: Antifungal activity against Candida albicans ATCC 10231 up to 1.25 mg/ml after 24 hr by broth microdilution method. The assay is classed as functional, organism-based.
The subject of assay [8] is Staphylococcus aureus. Description: Antibacterial activity against Staphylococcus aureus ATCC 6538P up to 1.25 mg/ml after 24 hr by broth microdilution method. The class given is functional, organism-based.
The subject of assay [9] is Escherichia coli. Description: Antibacterial activity against Escherichia coli ATCC 8739 up to 1.25 mg/ml after 24 hr by broth microdilution method. The class given is functional, organism-based.

On to `CC1(C)S[C@@H]2[C@H](NC(=O)[C@H](N)c3ccccc3)C(=O)N2[C@H]1C(=O)O` [AMPICILLIN], for which the minimal inhibitory concentration (MIC) in assay [1] worked out at 2.3 µg/mL; in assay [2] it was 0.036 µg/mL.
In assay [3], `Cc1ncc([N+](=O)[O-])n1CC/N=C/c1cccs1` gave a pIC50 of 6.08. Also, the MIC in assay [1] (read-out: MIC) came to 7100 µM; in assay [2] (read-out: MIC), 7100 µM; in [4] (read-out: MIC), 2070 µM; in assay [5], 369 µM (≈ 97.5 µg/mL). For the same compound, in assay [6], the “Ratio IC50” value came out at 5.
For the compound `Cc1ncc([N+](=O)[O-])n1CC/N=C/c1ccccc1O`, the pIC50 in [3] was 5.67. Also, the MIC in assay [1] (read-out: MIC) worked out at 2240 µM; in [2] (read-out: MIC), 2000 µM; in assay [4] (read-out: MIC), 360 µM; in assay [5] it was 285 µM (≈ 78.2 µg/mL).
In turn, `Cc1ncc([N+](=O)[O-])n1CCO` [METRONIDAZOLE] gave a pIC50 in assay [3] of 5.43. Besides, the MIC is 5480 µM in assay [1] (read-out: MIC), 2050 µM in assay [2] (read-out: MIC) and 45.6 µM (≈ 7.8 µg/mL) in assay [5]. In assay [7], the outcome was inactive.
The compound `Cc1ncc([N+](=O)[O-])n1CC/N=C/c1ccncc1` had a pIC50 in assay [3] of 4.95. Moreover, the minimum inhibitory concentration (MIC) in assay [1] (read-out: MIC) turned out to be 8460 µM; in assay [2] (read-out: MIC), 8460 µM; in assay [5] it was 376 µM (≈ 97.5 µg/mL). Besides, in assay [7], the result was inactive.
Turning to `Cc1ncc([N+](=O)[O-])n1CC/N=C/c1ccccc1Cl`, the pIC50 in [3] is 5.14. Also, the MIC was 2140 µM in assay [1] (read-out: MIC), 2670 µM in assay [2] (read-out: MIC), 170 µM in assay [4] (read-out: MIC) and 267 µM (≈ 78.2 µg/mL) in assay [5].
With `Cc1ncc([N+](=O)[O-])n1CC/N=C/c1ccco1`, the pIC50 in assay [3] is 5.56. Further, the MIC came out at 8850 µM in assay [1] (read-out: MIC), 8850 µM in assay [2] (read-out: MIC) and 236 µM (≈ 58.6 µg/mL) in assay [5]. Also, in assay [7], the outcome was inactive.
`Cc1ncc([N+](=O)[O-])n1CC/N=C/c1ccc([N+](=O)[O-])cc1` showed a negative logarithm of the IC50 (pIC50) in assay [3] of 5.74. The outcome in assay [8] and in assay [9] was inactive. The MIC worked out at 450 µM in assay [4] (read-out: MIC) and 257 µM (≈ 77.9 µg/mL) in assay [5].
In [3], `COc1ccc(/C=N/CCn2c([N+](=O)[O-])cnc2C)cc1` gave a pIC50 of 5.65. Besides, the MIC in [1] (read-out: MIC) amounted to 4340 µM; in [2] (read-out: MIC) it was 4340 µM; in assay [4] (read-out: MIC) it was 340 µM; in [5], 203 µM (≈ 58.5 µg/mL).
`Cc1ccc(/C=N/CCn2c([N+](=O)[O-])cnc2C)cc1` showed a pIC50 in assay [3] of 5.87. Further, the MIC in assay [1] (read-out: MIC) amounted to 4370 µM; in [2] (read-out: MIC) it was 6890 µM; in assay [4] (read-out: MIC), 1000 µM; in [5] it was 1440 µM (≈ 392 µg/mL).
For `Clc1ccc(COC(Cn2ccnc2)c2ccc(Cl)cc2Cl)c(Cl)c1` (centres undefined) [MICONAZOLE], in assay [4], the MIC is 2.9 µg/mL.
On to `Cc1ncc([N+](=O)[O-])n1CC/N=C/c1cc(Cl)ccc1O`, for which the pIC50 in assay [3] is 5.36. The MIC in [1] (read-out: MIC) was determined as 760 µM; in assay [2] (read-out: MIC), 760 µM; in assay [4] (read-out: MIC) it was 440 µM; in assay [5], 1010 µM (≈ 313 µg/mL).
Consider `Cc1ncc([N+](=O)[O-])n1CC/N=C/c1ccc(F)cc1`, for which the pIC50 in [3] is 5.62. Moreover, the MIC in assay [1] (read-out: MIC) stood at 4300 µM; in assay [2] (read-out: MIC), 5090 µM; in [4] (read-out: MIC), 1990 µM; in [5], 1130 µM (≈ 313 µg/mL).

The MIC is the least concentration at which growth counts as inhibited. The term pIC50 denotes the IC50 on a negative log10 scale, so that one unit is a factor of ten.
